Where two headings read alike, the source gives them in different places.
What was measured:
Format in all cases: binding
[1] = target: T1, HeLa cell extract proteins (Homo sapiens, UniProt O95382)
T1 construct: endogenous in cells; host or cells: HeLa cell extract
T1 sequence (O95382 1-1288): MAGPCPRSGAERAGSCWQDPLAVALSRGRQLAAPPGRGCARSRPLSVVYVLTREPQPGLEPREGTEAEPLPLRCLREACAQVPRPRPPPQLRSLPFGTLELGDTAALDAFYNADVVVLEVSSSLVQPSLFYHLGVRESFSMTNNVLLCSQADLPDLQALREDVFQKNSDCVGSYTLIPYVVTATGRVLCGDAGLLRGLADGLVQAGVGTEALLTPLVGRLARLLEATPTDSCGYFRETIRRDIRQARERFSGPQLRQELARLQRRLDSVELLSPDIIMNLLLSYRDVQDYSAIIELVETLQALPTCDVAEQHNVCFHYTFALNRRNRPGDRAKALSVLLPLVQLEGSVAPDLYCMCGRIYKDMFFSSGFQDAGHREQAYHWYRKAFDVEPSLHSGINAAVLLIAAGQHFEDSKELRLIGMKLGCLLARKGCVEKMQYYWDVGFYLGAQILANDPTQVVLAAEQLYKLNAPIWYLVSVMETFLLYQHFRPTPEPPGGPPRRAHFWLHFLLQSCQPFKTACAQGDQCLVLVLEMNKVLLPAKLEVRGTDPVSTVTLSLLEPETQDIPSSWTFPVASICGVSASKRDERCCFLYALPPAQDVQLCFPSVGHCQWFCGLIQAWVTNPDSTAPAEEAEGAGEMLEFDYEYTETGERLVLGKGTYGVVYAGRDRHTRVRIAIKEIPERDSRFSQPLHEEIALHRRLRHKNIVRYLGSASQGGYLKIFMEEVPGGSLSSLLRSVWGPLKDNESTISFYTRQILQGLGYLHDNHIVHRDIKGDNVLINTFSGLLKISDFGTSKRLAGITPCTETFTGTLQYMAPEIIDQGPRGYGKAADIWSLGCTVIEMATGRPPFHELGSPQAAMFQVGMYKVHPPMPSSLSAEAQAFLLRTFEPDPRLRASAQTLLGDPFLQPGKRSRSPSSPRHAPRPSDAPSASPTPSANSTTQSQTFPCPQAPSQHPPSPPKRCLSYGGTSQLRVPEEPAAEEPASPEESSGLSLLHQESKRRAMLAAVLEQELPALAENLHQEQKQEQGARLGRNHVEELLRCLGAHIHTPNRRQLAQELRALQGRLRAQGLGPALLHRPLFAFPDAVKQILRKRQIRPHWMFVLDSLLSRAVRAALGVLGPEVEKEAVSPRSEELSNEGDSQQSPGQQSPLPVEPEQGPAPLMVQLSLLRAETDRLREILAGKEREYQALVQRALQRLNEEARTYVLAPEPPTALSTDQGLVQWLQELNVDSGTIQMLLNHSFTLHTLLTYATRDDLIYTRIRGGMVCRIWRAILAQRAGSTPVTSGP

[2] = target: T2, HeLa cell extract proteins (Homo sapiens, UniProt P08579)
T2 construct: endogenous in cells; host or cells: HeLa cell extract
T2 sequence (P08579 whole entry): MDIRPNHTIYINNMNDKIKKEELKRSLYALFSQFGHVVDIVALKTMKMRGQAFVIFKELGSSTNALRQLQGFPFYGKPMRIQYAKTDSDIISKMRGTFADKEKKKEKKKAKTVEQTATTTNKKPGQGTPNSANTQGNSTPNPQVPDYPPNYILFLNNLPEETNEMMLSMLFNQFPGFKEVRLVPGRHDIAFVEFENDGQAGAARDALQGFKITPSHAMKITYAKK

[3] = target: T3, HeLa cell extract proteins (Homo sapiens, UniProt P23396)
T3 construct: endogenous in cells; host or cells: HeLa cell extract

[4] = target: T4, HeLa cell extract proteins (Homo sapiens, UniProt P40925)
T4 construct: endogenous in cells; host or cells: HeLa cell extract
T4 sequence (P40925 1-334): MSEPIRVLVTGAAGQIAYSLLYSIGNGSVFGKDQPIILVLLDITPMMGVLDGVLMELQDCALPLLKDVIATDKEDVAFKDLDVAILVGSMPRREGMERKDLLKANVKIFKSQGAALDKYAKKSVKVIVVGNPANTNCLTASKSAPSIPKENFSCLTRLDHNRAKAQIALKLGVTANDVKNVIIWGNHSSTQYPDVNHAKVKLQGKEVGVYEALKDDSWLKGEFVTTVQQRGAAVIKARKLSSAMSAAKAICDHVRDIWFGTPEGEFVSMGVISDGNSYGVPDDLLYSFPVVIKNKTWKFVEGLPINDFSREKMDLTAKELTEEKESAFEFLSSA

[5] = target: T5, HeLa cell extract proteins (Homo sapiens, UniProt Q16637)
T5 construct: endogenous in cells; host or cells: HeLa cell extract
T5 sequence (Q16637 whole entry): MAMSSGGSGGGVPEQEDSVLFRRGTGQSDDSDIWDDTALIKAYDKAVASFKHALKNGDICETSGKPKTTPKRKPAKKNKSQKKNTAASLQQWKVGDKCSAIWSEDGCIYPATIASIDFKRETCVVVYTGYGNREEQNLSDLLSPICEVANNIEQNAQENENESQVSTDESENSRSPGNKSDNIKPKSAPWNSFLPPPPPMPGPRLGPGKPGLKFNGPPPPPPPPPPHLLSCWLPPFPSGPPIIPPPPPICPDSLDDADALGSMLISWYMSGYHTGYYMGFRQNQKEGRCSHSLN

[6] = target: T6, HeLa cell extract proteins (Homo sapiens, UniProt Q8TCG1)
T6 construct: endogenous in cells; host or cells: HeLa cell extract

[7] = target: T7, HeLa cell extract proteins (Homo sapiens, UniProt Q969M3)
T7 construct: endogenous in cells; host or cells: HeLa cell extract
T7 sequence (Q969M3 whole entry): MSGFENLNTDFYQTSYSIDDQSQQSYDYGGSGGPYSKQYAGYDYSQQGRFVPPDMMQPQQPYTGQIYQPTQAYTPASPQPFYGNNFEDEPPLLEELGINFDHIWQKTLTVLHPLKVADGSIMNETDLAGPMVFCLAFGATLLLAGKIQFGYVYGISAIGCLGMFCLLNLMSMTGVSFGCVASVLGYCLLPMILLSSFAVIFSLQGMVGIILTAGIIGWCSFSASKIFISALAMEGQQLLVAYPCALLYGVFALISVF

[8] = target: T8, HeLa cell extract proteins (Homo sapiens, UniProt Q9H773)
T8 construct: endogenous in cells; host or cells: HeLa cell extract
T8 sequence (Q9H773 1-170): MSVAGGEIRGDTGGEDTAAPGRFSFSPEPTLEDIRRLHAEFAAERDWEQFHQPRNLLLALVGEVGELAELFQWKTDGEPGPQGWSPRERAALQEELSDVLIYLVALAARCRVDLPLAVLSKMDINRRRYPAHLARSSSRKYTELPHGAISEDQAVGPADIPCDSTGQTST

[9] = target: T9, HeLa cell extract proteins (Homo sapiens, UniProt Q9UKU7)
T9 construct: endogenous in cells; host or cells: HeLa cell extract
T9 sequence (Q9UKU7 23-415): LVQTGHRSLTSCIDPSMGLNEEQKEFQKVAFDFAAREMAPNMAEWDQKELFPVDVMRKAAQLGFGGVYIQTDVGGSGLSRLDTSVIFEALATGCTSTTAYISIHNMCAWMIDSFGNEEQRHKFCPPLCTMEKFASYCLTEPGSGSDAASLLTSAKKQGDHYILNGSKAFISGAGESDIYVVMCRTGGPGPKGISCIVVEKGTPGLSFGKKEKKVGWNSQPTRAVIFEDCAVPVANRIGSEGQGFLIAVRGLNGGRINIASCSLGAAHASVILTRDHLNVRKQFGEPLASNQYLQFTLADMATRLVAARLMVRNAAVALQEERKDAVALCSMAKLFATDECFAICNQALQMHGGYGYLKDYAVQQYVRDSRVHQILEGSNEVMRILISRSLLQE

[10] = target: T10, HeLa cell extract proteins (Homo sapiens, UniProt Q9Y6M0)
T10 construct: endogenous in cells; host or cells: HeLa cell extract
T10 sequence (Q9Y6M0 42-314): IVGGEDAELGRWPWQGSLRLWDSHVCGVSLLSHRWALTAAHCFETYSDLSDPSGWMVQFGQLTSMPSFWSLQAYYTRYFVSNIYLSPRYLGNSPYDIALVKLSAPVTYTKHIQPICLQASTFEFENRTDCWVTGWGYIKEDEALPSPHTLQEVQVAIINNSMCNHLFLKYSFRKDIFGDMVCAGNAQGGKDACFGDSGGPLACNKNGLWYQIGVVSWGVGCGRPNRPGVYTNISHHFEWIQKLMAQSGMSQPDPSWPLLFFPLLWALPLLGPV

[11] = HeLa, protein XTP3TPA (XTP3-TRAN[…] A PROTEIN)
[12] = HeLa, protein MDH1 (MALATE DEHYDROGENASE, CYTOPLASMIC.)
[13] = captured protein KIAA1524, HeLa

Compound | fold changes relative to vehicle control ([1]; HeLa, protein MAP3K6) | fold changes relative to vehicle control ([2]; HeLa, protein SNRPB2) | fold changes relative to vehicle control ([3]; HeLa, captured protein RPS3) | fold changes relative to vehicle control ([4]; HeLa, protein MDH1) | fold changes relative to vehicle control ([5]; HeLa, protein SMN1) | fold changes relative to vehicle control ([6]; HeLa, protein KIAA1524) | fold changes relative to vehicle control ([7]; HeLa, captured protein YIPF5) | fold changes relative to vehicle control ([9]; HeLa, protein ACAD8) | fold changes relative to vehicle control ([10]; HeLa, protein PRSS21) | fold changes relative to vehicle control ([3]; captured protein RPS3, HeLa) | fold changes relative to vehicle control [4, 12] | fold changes relative to vehicle control ([5]; protein SMN1, HeLa) | fold changes relative to vehicle control [6, 13] | fold changes relative to vehicle control ([7]; captured protein YIPF5, HeLa) | fold changes relative to vehicle control ([8]; captured protein XTP3TPA, HeLa) | fold changes relative to vehicle control ([9]; protein ACAD8, HeLa) | also measured
Nc1nc2c(c(=O)[nH]1)N(C=O)C(CNc1ccc(C(=O)N[C@@H](CCC(=O)O)C(=O)O)cc1)CN2 (stereo partly shown) [LEU, leucovorin] | 0.99 | 1 | 1.08 | 1.01 | 0.94 | 0.87 | 0.94 | 0.79 | 1 |  |  |  |  |  |  |  | fold changes relative to vehicle control [8, 11]: 1.14
NCCCNc1ccc(C(=O)NC(CCC(=O)O)C(=O)O)cc1 (stereo not shown) [compound 7] | 1.16 | 0.77 | 1.15 | 0.93 | 0.97 | 0.89 | 0.83 | 0.77 | 0.97 |  |  |  |  |  |  |  | fold changes relative to vehicle control [8, 11]: 1.21
CCCCCCOc1cccc(Cc2cnc(N)nc2N)c1 [compound 2] | 0.97 | 1.43 |  |  |  |  |  |  | 1.18 | 1.16 | 2.15 fold | 1.09 | 1.09 | 1.15 | 0.73 | 1.19 | 
CCCCCCOc1ccc(Cc2cnc(N)nc2N)cc1 [compound 1] | 0.99 | 1.22 |  |  |  |  |  |  | 1.11 | 1.08 | 1.3 fold | 1 | 0.97 | 1.43 | 0.91 | 1.11 | 
Nc1nc2cccc(-c3ccccc3)c2n1Cc1ccc(Cl)c(Cl)c1 [compound 3] | 0.97 | 0.76 |  |  |  |  |  |  | 1.04 | 1.03 | 0.87 fold | 0.98 | 0.98 | 0.72 | 1.14 | 1.13 | 
NCCOCCOCC(=O)Nc1nc2ncc(CNc3ccc(C(=O)NC(CCC(=O)O)C(=O)O)cc3)nc2c(=O)[nH]1 (stereo not shown) [compound 6] | 1.19 | 0.93 | 1.11 | 1.42 | 1.16 | 0.94 | 0.93 | 0.75 | 0.96 |  |  |  |  |  |  |  | fold changes relative to vehicle control ([8]; HeLa, protein XTP3TPA (XTP3-TRANSACTIVATED GENE A PROTEIN)): 0.51
Nc1nc2[nH]cc(CCc3ccc(C(=O)N[C@@H](CCC(=O)O)C(=O)O)cc3)c2c(=O)[nH]1 [PTX, pemetrexed] |  |  |  |  |  |  |  |  |  |  |  |  |  |  |  |  | fold changes relative to vehicle control [1]: 1.16; fold changes relative to vehicle control [2]: 0.98; fold changes relative to vehicle control [3]: 1.18; fold changes relative to vehicle control [4]: 1.2; fold changes relative to vehicle control [5]: 0.99; fold changes relative to vehicle control [6]: 0.87; fold changes relative to vehicle control [7]: 0.98; fold changes relative to vehicle control [8]: 1.09; fold changes relative to vehicle control [9]: 0.83; fold changes relative to vehicle control [10]: 0.89
